Data reported in patent US7135615B2, “Chromosome doubling method” (The Curators of the University of Missouri, priority 2001, dated 2006).
Marks after values point to notes of the source that are not given here.

What was measured:
[1] = tested on: flowers of grasses; maize haploids; assay: nitrous oxide procedure, general statement of doubling and selfing rates; assay type: in vivo, maize (Zea mays L.)
Description: The technique results from studies carried out for the development of a high-yield technique for chromosome doubling in grasses and particularly, in maize. The new procedure induces doubled sectors on the flowers of grasses at a high rate (50–100%) without injuring seedlings. […] With the technique, large number of plants (1000/day) can be treated by one person. In maize haploids, doubled sectors are induced both on the tassels and ears and self pollination is possible at 30–90% level, whereas no reliable procedure for chromosome doubling had previously been available.

[2] = tested on: maize haploid seedlings of various origin; assay: doubled haploid production trial, combined data (Total/Average) of haploids of eight different origins; settings: for Ear: Plants with kernels after selfing % / Tassel: No. of fertile anthers extruded/tassel / Tassel: No. of fertile sectors/tassel / Tassel: Plants with fertile sectors % / Ear: Plants with kernels after selfing No. / Tassel: Plants with fertile sectors No. / No. of plants Survived / Ear: No. of kernels produced/ear: Total/Average of eight origins, 600 kPa, 2 days; for Ear: No. of kernels produced/ear: selfed
Description: (§1) Ten to nineteen plants were treated for each plot. Self pollinations were conducted on these treated haploids if there were fertile sectors on the tassel. Pollen grains were collected carefully on a sheet of paper and transferred to the silks repeatedly. Silks and husks were cut back prior to pollination in order to permit maximum seed set. The numbers of fertile tassel and ear sectors, as well as the numbers of anthers and selfed kernels were recorded. Statistical analyses were as described above.

B55 haploid plants = assay: nitrous oxide treatment of B55 haploids (initial study, Example 1)
Description: Maize haploids were induced by the stock 6 procedure (Coe 1959) and separated by the color marker R1-scm2 (Kato, 1999c). […] Haploid seeds were surface sterilized with the fungicide Captan and germinated in moist vermiculite at 30° C. for two days. The germinated seeds were planted at the edge of a small pot filled with ProMix (FIG. 1).
Application of a water mist to the plastic carpet may be used to prevent the occurrence of a static charge. […] The chamber was made from steel pipes and flanges designed for industrial use. Two 3 foot long pipes with flanges at both sides were connected to each other with 8 bolts to form the chamber. Iron covers were applied at the both ends. […] The chamber was preferably earthed.
Because the gas from the tank was very cold, use of a long introductory tube (5 m) submerged in water was made to warm up the gas before introduction into the chamber. Application of paper wrapped moistened calcium hydroxide was also preferable to absorb accumulating carbon dioxide in the chamber.
After N2O treatment the seedlings were kept at warm temperature (20–25° C.) in the greenhouse for two to three days and transplanted to the field or pots in the greenhouse. […] The plants were then grown and self pollinated. Cultivation and self pollination methods were the same as for diploid maize plants.

[3] = tested on: maize haploid seedlings of origin W22 × W23; assay: doubled haploid production trial, W22 × W23 haploids (Example 4); settings: 600 kPa, 2 days; for Ear: No. of kernels produced/ear: selfed
Description: as §1

[4] = tested on: maize haploid seedlings of origin A619; assay: doubled haploid production trial, A619 haploids (Example 4); settings: 600 kPa, 2 days; for Ear: No. of kernels produced/ear: selfed
Description: as §1

[N-]=[N+]=O [nitrous oxide gas, nitrous oxide]
rate of doubled sectors induced on the flowers of grasses ([1]; grasses, without injuring seedlings): 50–100% | level at which self pollination is possible ([1]; maize haploids, doubled sectors on both tassels and ears): 30–90% | Ear: Plants with kernels after selfing % ([2]; 5 leaf stage): 36** % | Tassel: No. of fertile anthers extruded/tassel ([2]; 5 leaf stage): 32.3** /tassel | Tassel: No. of fertile sectors/tassel ([2]; 5 leaf stage): 0.9** /tassel | Tassel: Plants with fertile sectors % ([2]; 5 leaf stage): 61** % | Ear: Plants with kernels after selfing No. ([2]; 5 leaf stage, 95 survived): 33 | Tassel: Plants with fertile sectors No. ([2]; 5 leaf stage, 95 survived): 58 | No. of plants Survived ([2]; 5 leaf stage, 102 treated): 95 | Ear: No. of kernels produced/ear ([2]; 5 leaf stage): 4.4** /ear | Ear: Plants with kernels after selfing % ([2]; 6 leaf stage): 44% | Tassel: No. of fertile anthers extruded/tassel ([2]; 6 leaf stage): 74.3 /tassel | Tassel: No. of fertile sectors/tassel ([2]; 6 leaf stage): 2.1** /tassel | Tassel: Plants with fertile sectors % ([2]; 6 leaf stage): 78** % | Ear: Plants with kernels after selfing No. ([2]; 6 leaf stage, 90 survived): 39 | Tassel: Plants with fertile sectors No. ([2]; 6 leaf stage, 90 survived): 70 | No. of plants Survived ([2]; 6 leaf stage, 97 treated): 90 | Ear: No. of kernels produced/ear ([2]; 6 leaf stage): 8.6** /ear | Ear: Plants with kernels after selfing % ([2]; 7 leaf stage): 34** % | Tassel: No. of fertile anthers extruded/tassel ([2]; 7 leaf stage): 63.5** /tassel | Tassel: No. of fertile sectors/tassel ([2]; 7 leaf stage): 2.8** /tassel | Tassel: Plants with fertile sectors % ([2]; 7 leaf stage): 74** % | Ear: Plants with kernels after selfing No. ([2]; 7 leaf stage, 90 survived): 29 | Tassel: Plants with fertile sectors No. ([2]; 7 leaf stage, 90 survived): 67 | No. of plants Survived ([2]; 7 leaf stage, 101 treated): 90 | Ear: No. of kernels produced/ear ([2]; 7 leaf stage): 7.0** /ear | effect of treatment on fertility ([2]; haploids derived from A619, B73 and W22×W23): no significant effect | treated haploids that produced double haploid progenies after self pollination ([2]; haploids induced from Oh43, A619×B73, and Oh43×Mol7): about 30% | B55 haploid plants that could be self pollinated (B55 haploid plants; B55 haploids, 6 atm (600 kPa), two days, room temperature): 70–90% | treated plants sensitive to drought following treatment (B55 haploid plants; after N2O treatment, upon transplantation): 10% | induction of doubled sectors (B55 haploid plants; initial study, B55 haploids, 600 kPa): induced doubled sectors in both the tassel and the ear | damage to plants (B55 haploid plants; initial study, sealed chamber, room temperature): not damaged | Ear: Plants with kernels after selfing % ([3]; 5 leaf stage): 45 n.s. % | Tassel: No. of fertile anthers extruded/tassel ([3]; 5 leaf stage): 27.6 n.s /tassel | Tassel: No. of fertile sectors/tassel ([3]; 5 leaf stage): 1.1 n.s. /tassel | Tassel: Plants with fertile sectors % ([3]; 5 leaf stage): 64 n.s. % | Ear: Plants with kernels after selfing No. ([3]; 5 leaf stage, 11 survived): 5 | Tassel: Plants with fertile sectors No. ([3]; 5 leaf stage, 11 survived): 7 | No. of plants Survived ([3]; 5 leaf stage, 12 treated): 11 | Ear: No. of kernels produced/ear ([3]; 5 leaf stage): 9.5 n.s. /ear | Ear: Plants with kernels after selfing % ([3]; 6 leaf stage): 40% | Tassel: No. of fertile anthers extruded/tassel ([3]; 6 leaf stage): 18.0 /tassel | Tassel: No. of fertile sectors/tassel ([3]; 6 leaf stage): 2.1 /tassel | Tassel: Plants with fertile sectors % ([3]; 6 leaf stage): 60% | Ear: Plants with kernels after selfing No. ([3]; 6 leaf stage, 10 survived): 4 | Tassel: Plants with fertile sectors No. ([3]; 6 leaf stage, 10 survived): 6 | No. of plants Survived ([3]; 6 leaf stage, 12 treated): 10 | Ear: No. of kernels produced/ear ([3]; 6 leaf stage): 3.3 /ear | Ear: Plants with kernels after selfing % ([3]; 7 leaf stage): 43% | Tassel: No. of fertile anthers extruded/tassel ([3]; 7 leaf stage): 7.1 /tassel | Tassel: No. of fertile sectors/tassel ([3]; 7 leaf stage): 1.9 /tassel | Tassel: Plants with fertile sectors % ([3]; 7 leaf stage): 71% | Ear: Plants with kernels after selfing No. ([3]; 7 leaf stage, 7 survived): 3 | Tassel: Plants with fertile sectors No. ([3]; 7 leaf stage, 7 survived): 5 | No. of plants Survived ([3]; 7 leaf stage, 8 treated): 7 | Ear: No. of kernels produced/ear ([3]; 7 leaf stage): 11.4 /ear | Ear: Plants with kernels after selfing % ([4]; 5 leaf stage): 17 n.s. % | Tassel: No. of fertile anthers extruded/tassel ([4]; 5 leaf stage): 4.5 n.s /tassel | Tassel: No. of fertile sectors/tassel ([4]; 5 leaf stage): 0.3 n.s. /tassel | Tassel: Plants with fertile sectors % ([4]; 5 leaf stage): 25 n.s. % | Ear: Plants with kernels after selfing No. ([4]; 5 leaf stage, 12 survived): 2 | Tassel: Plants with fertile sectors No. ([4]; 5 leaf stage, 12 survived): 3 | No. of plants Survived ([4]; 5 leaf stage, 12 treated): 12 | Ear: No. of kernels produced/ear ([4]; 5 leaf stage): 0.3 n.s. /ear | Ear: Plants with kernels after selfing % ([4]; 6 leaf stage): 33% | Tassel: No. of fertile anthers extruded/tassel ([4]; 6 leaf stage): 3.2 /tassel | Tassel: No. of fertile sectors/tassel ([4]; 6 leaf stage): 0.6 /tassel | Tassel: Plants with fertile sectors % ([4]; 6 leaf stage): 56% | Ear: Plants with kernels after selfing No. ([4]; 6 leaf stage, 9 survived): 3 | Tassel: Plants with fertile sectors No. ([4]; 6 leaf stage, 9 survived): 5 | No. of plants Survived ([4]; 6 leaf stage, 9 treated): 9 | Ear: No. of kernels produced/ear ([4]; 6 leaf stage): 2.0 /ear | Ear: Plants with kernels after selfing % ([4]; 7 leaf stage): 31% | Tassel: No. of fertile anthers extruded/tassel ([4]; 7 leaf stage): 8.2 /tassel | Tassel: No. of fertile sectors/tassel ([4]; 7 leaf stage): 1.6 /tassel | Tassel: Plants with fertile sectors % ([4]; 7 leaf stage): 54% | Ear: Plants with kernels after selfing No. ([4]; 7 leaf stage, 13 survived): 4 | Tassel: Plants with fertile sectors No. ([4]; 7 leaf stage, 13 survived): 7 | No. of plants Survived ([4]; 7 leaf stage, 14 treated): 13 | Ear: No. of kernels produced/ear ([4]; 7 leaf stage): 1.6 /ear
